# Measurements taken from ChEMBL document CHEMBL1201862, “PubChem BioAssay data set” (2004).
# “And” between values parts separate entries of the source, which are not always exact repeats. Identical values can stand only once. The source made the active and inactive calls.
# Columns and labels:
# [1] = CEM21 cell cytotoxicity, dose response, cytotoxicity control, plate reader, dry powder (AID 687026); format: functional, cell-based
# [2] = HIV Env cell-cell fusion inhibitors, dose response, HIV entry, plate reader, dry powder (AID 687023); format: functional, cell-based
# [3] = biological target: E3 ubiquitin-protein ligase UHRF1 (Homo sapiens, UniProt Q96T88); experiment: Counterscreen for inhibitors of 5-meCpG-binding domain protein 2 (MBD2): TRFRET-based biochemical high throughput dose response assay to identify inhibitors of binding of ubiquitin-like with PHD and ring finger domains 1 (UHRF1) to methylated oligonucleotide.
# Sequence of E3 ubiquitin-protein ligase UHRF1 (Q96T88 whole entry, the tested form may be a part): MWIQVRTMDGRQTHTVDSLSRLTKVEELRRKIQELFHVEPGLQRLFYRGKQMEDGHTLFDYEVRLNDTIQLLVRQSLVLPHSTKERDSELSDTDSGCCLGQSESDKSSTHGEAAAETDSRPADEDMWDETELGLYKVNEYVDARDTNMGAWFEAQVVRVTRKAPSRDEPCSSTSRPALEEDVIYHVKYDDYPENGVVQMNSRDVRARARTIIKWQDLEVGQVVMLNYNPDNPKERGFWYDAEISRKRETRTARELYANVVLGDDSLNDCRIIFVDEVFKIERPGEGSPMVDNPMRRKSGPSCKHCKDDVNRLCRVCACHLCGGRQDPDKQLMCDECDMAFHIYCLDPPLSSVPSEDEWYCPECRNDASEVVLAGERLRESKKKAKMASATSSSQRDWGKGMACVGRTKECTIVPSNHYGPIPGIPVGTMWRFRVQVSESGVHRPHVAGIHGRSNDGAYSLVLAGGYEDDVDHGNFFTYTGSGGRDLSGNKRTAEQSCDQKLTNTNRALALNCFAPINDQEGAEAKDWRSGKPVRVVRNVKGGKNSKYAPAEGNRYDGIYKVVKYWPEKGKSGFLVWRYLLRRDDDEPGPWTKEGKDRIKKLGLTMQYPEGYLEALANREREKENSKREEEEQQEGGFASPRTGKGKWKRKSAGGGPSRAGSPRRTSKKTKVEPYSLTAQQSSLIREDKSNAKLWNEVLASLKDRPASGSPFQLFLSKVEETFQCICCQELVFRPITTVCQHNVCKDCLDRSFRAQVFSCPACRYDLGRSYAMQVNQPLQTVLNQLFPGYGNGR
# [4] = HCT116 cell viability decrease, GSK3B pretreatment – CellTiter-Glo, IC50, dose response (AID 1117339); format: functional; settings: HCT-116
# [5] = HeLa 2N DNA content increase, dose response, cell-based, IC50 (AID 1117349); format: functional
# [6] = RKO cell viability reduction, dose response, CellTiter-Glo luminescence (AID 1117322); format: functional
# [7] = cytotoxicity toward HT-29 cells – cell-based, CellTiter-Glo luminescence, IC50, dose response (AID 1117330); format: functional
# [8] = cytotoxicity toward Colo320 cells – cell-based, CellTiter-Glo luminescence, IC50, dose response (AID 1117334); format: functional; settings: COLO 320
# [9] = cytotoxicity toward HCT116 cells – cell-based, CellTiter-Glo luminescence, IC50, dose response (AID 1117332); format: functional; settings: HCT-116
# [10] = CellTiter-Glo luminescent dose response of DLD-1 viability loss (AID 1117352); format: functional
# [11] = Concentration-dependent survival of SW480 colon cancer line, luminescence detection with CellTiter-Glo, half-maximal inhibitory concentration (AID 1117338); format: functional
# [12] = HeLa 4N DNA content increase, dose response, cell-based, IC50 (AID 1117351); format: functional
# [13] = SNU-C1 cell viability reduction, dose response, CellTiter-Glo luminescence (AID 1117323); format: functional, cell-based
# [14] = biological target: T1, Oxysterols receptor LXR-beta (Homo sapiens, UniProt P55055); format: functional, cell-based;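 further: Cell-based luminescence dose-response assay of agonist activity at LXR, run as a confirmatory counterscreen to a daf-12 agonist screen; HEK293 cells with Gal4-LXR fusion and GAL4-driven luciferase reporter; agonist potency from rising luciferase signal of a Gal4-LXR reporter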
# T1 sequence (P55055 whole entry): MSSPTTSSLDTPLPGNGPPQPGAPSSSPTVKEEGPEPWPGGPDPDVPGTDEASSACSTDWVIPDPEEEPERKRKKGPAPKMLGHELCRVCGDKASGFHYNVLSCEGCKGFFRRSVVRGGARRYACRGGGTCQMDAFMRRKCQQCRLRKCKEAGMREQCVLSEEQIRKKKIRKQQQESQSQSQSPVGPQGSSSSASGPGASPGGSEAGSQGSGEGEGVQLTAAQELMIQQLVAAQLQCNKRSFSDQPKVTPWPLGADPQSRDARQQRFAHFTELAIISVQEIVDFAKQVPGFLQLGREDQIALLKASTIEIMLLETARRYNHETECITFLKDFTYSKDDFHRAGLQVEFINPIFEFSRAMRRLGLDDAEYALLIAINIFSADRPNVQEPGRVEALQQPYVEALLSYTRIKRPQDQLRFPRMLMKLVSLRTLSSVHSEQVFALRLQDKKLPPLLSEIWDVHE
# [15] = cells
# [16] = biological target: Metabotropic glutamate receptor 8 (Homo sapiens, UniProt O00222); experiment: Fold shift mGlu8 using GIRK assay.; format: functional
# Sequence of Metabotropic glutamate receptor 8 (O00222 whole entry): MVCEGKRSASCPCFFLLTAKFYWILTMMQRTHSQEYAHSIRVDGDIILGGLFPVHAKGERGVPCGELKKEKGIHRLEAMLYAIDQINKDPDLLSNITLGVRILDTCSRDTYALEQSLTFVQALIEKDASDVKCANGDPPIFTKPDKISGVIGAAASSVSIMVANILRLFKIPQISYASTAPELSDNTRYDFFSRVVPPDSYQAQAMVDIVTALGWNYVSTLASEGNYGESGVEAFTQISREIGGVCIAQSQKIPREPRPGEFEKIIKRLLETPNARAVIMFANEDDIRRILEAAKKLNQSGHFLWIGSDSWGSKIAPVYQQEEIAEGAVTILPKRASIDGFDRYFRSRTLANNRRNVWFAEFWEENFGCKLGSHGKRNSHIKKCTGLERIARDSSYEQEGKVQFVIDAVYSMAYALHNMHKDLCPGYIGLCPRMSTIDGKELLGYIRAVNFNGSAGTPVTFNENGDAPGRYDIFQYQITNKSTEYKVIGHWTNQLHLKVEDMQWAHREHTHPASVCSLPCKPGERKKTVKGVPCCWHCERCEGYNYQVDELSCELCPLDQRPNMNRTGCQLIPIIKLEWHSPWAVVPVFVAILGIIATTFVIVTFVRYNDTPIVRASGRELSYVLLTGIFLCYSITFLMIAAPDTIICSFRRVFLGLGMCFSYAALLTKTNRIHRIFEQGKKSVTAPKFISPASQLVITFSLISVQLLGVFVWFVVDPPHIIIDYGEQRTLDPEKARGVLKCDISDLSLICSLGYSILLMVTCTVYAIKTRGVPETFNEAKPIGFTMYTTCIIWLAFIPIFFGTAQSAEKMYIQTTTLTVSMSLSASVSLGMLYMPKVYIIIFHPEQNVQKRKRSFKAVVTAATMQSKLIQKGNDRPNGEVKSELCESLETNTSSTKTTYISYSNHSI
# [17] = biological target: Metabotropic glutamate receptor 6 (Homo sapiens, UniProt O15303); experiment: mGlu6 agonist response modulation at 10 µM, profiling panel, selectivity assay for mGlu8/mGlu7 PAM project, cell-based, GIRK thallium flux, agonist curve fold shift (AID 743421); format: functional
# [18] = biological target: Metabotropic glutamate receptor 5 (Homo sapiens, UniProt P41594); experiment: mGlu5 glutamate response modulation at 10 µM, profiling panel, selectivity assay for mGlu8/mGlu7 PAM project, cell-based, calcium fluorescence, glutamate curve fold shift (AID 743419); format: functional
# Sequence of Metabotropic glutamate receptor 5 (P41594 whole entry): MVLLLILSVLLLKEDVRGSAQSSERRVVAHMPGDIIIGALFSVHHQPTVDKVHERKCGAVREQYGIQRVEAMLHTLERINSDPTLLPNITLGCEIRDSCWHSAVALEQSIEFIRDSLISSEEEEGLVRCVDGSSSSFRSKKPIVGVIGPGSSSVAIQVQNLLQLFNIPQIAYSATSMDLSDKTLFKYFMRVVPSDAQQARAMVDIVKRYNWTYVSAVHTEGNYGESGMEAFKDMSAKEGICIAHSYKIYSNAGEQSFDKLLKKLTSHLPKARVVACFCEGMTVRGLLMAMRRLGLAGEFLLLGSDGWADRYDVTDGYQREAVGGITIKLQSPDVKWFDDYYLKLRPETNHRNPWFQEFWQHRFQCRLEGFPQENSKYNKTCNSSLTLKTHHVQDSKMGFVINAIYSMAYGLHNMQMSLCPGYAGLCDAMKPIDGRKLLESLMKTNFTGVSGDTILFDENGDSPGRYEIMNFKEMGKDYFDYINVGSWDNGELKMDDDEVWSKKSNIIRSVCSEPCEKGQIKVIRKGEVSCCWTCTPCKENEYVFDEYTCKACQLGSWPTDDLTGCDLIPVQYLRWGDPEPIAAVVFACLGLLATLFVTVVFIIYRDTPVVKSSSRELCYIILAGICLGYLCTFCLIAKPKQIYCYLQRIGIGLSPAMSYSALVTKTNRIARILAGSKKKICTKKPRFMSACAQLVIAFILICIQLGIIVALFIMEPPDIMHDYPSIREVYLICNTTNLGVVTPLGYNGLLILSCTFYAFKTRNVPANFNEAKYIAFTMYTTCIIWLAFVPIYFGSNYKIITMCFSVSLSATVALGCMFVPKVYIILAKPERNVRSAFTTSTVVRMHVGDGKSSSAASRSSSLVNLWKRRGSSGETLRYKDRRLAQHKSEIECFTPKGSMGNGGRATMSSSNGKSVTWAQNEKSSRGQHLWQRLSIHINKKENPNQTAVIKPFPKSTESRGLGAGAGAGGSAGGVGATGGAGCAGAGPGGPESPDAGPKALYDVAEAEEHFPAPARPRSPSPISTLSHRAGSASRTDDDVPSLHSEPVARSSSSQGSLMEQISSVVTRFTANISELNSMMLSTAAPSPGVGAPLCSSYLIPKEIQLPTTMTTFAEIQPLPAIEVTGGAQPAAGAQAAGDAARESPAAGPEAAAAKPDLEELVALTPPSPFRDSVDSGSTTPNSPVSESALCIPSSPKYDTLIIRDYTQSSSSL
# [19] = biological target: Metabotropic glutamate receptor 2 (Homo sapiens, UniProt Q14416); experiment: mGlu2 agonist response modulation at 10 µM, profiling panel, selectivity assay for mGlu8/mGlu7 PAM project, cell-based, GIRK thallium flux, agonist curve fold shift (AID 743433); format: functional
# [20] = biological target: T2, Metabotropic glutamate receptor 4 (Homo sapiens, UniProt Q14833); experiment: agonist response potentiation at mGlu4 receptor – cell-based, GIRK thallium flux, mechanism study for group III mGlu PAM project, late-stage follow-up (AID 743466); format: functional
# T2 sequence (Q14833 whole entry): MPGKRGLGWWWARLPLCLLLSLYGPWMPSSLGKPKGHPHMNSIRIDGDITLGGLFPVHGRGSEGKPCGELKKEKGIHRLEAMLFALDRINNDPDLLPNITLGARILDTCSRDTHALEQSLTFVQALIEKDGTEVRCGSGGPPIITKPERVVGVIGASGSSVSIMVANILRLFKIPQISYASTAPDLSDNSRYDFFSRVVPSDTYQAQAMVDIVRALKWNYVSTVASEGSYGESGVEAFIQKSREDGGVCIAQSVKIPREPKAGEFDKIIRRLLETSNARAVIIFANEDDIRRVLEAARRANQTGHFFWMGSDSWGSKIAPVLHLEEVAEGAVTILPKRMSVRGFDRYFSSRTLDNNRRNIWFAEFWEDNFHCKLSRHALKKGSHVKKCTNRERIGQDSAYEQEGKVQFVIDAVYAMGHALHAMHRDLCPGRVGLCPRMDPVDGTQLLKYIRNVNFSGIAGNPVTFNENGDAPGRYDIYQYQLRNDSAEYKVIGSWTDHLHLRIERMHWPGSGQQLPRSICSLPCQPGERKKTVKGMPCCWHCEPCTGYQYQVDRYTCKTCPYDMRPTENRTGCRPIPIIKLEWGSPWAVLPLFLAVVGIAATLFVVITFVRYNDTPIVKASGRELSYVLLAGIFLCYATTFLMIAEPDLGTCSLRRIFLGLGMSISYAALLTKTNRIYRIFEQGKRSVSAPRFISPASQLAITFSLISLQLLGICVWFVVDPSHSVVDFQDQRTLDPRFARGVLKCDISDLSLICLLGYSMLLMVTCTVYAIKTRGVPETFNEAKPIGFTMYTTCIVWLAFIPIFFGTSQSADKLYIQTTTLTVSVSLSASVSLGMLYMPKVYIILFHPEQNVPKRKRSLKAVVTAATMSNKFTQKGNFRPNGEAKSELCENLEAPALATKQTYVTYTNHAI
# [21] = biological target: T2, Metabotropic glutamate receptor 4; experiment: Fold shift mGlu4, mGlu7, mGlu8 using calcium mobilization.; format: functional
# [22] = biological target: T3, Metabotropic glutamate receptor 7 (Homo sapiens, UniProt Q14831); experiment: glutamate curve shift by mGlu7 potentiators, cell-based, rat, GIRK per title (AID 743386); format: functional
# T3 sequence (Q14831 whole entry): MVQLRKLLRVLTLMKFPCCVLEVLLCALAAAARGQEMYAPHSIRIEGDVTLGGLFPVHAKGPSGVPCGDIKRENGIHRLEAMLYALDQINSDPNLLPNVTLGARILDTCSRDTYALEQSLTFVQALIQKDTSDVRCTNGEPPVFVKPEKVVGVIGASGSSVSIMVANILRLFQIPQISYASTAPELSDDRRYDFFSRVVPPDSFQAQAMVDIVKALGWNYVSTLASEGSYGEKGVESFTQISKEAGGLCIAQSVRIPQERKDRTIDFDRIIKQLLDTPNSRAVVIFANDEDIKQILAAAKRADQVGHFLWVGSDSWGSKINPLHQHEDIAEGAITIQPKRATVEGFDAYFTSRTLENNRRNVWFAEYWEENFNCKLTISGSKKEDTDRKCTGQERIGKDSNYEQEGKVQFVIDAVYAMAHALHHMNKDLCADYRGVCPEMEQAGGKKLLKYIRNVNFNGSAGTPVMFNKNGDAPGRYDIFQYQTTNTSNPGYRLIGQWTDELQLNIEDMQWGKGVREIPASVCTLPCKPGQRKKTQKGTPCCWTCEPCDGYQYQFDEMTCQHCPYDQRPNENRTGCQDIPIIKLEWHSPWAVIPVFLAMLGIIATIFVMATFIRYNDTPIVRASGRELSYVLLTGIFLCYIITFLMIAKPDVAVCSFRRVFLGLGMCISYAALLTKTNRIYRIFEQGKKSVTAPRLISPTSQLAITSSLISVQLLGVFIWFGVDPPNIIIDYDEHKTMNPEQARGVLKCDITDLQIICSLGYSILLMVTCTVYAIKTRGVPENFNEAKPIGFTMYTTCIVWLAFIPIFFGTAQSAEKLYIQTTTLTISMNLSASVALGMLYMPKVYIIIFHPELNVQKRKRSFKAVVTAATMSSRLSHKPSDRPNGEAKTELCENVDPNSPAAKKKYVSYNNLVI
# [23] = biological target: Metabotropic glutamate receptor 3 (Homo sapiens, UniProt Q14832); experiment: Selectivity Studies of mglur8 probe at mglur3.; format: functional
# [24] = biological target: T3, Metabotropic glutamate receptor 7; experiment: Fold shift mGlu7 using calcium mobilization.; format: functional
# [25] = biological target: G-protein coupled receptor 183 (Homo sapiens, UniProt P32249); experiment: SAR confirmation of small molecule antagonists of the EBI2 receptor via a luminescent beta-arrestin assa.; format: functional
# [26] = biological target: NAD-dependent protein deacylase sirtuin-5, mitochondrial (Homo sapiens, UniProt Q9NXA8); experiment: SIRT5 deacylase inhibitors, dose response, biochemical, fluorescence imaging, cherry-pick, set 6 (AID 720597)
# Sequence of NAD-dependent protein deacylase sirtuin-5, mitochondrial (Q9NXA8 whole entry): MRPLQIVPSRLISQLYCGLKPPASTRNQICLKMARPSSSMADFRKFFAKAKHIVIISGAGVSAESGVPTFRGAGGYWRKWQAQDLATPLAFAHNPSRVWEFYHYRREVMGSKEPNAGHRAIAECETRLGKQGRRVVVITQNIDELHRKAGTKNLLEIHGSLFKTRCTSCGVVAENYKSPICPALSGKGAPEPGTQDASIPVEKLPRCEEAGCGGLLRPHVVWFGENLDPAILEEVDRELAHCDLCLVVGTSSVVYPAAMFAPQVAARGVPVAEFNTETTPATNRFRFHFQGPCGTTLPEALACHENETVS
# [27] = A549 cell cytotoxicity, dose response, cytotoxicity control, plate reader, dry powder, set 6 (AID 743312); format: functional, cell-based
# [28] = cells; settings: HEK293
# [29] = biological target: Protein Tat (Human immunodeficiency virus type 1 group M subtype B (isolate HXB2)(HIV-1), UniProt P04608); format: functional;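 further: tat binding to TAR RNA read out by fluorescence polarization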
# [30] = Vero cell cytotoxicity, dose response, cytotoxicity control for Vif-APOBEC3G degradation inhibitor project, Vero cells (AID 1117358); format: functional; settings: Human immunodeficiency virus 1, Vero
# [31] = inhibitors of non-replicating M. tuberculosis, dose response, luciferase, dry powder (AID 651619); format: functional; settings: Mycobacterium tuberculosis
# [32] = inhibitors of non-replicating M. tuberculosis, dose response, luciferase, dry powder (AID 651620); format: functional; settings: Mycobacterium tuberculosis
# [33] = Shn3 3'UTR reporter inhibitors, dose response, cell-based, Clone20 osteoblasts, firefly luciferase, cherry-picked (AID 624132); format: functional;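 further: firefly luciferase luminescence from reporter carrying the Shn3 3'UTR in osteoblasts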
# [34] = test system: HEK293; experiment: cells; settings: Homo sapiens
# [35] = HepG2 cell cytotoxicity, dose response, cytotoxicity control for Shn3 inhibitor project, CellTiter-Glo, cherry-picked (AID 624134); format: functional, cell-based
# [36] = biological target: T4, Nucleotide-binding oligomerization domain-containing protein 1 (Homo sapiens, UniProt Q9Y239); experiment: NOD1 signaling inhibitors, SAR follow-up, revised (AID 2333); format: functional
# T4 sequence (Q9Y239 whole entry): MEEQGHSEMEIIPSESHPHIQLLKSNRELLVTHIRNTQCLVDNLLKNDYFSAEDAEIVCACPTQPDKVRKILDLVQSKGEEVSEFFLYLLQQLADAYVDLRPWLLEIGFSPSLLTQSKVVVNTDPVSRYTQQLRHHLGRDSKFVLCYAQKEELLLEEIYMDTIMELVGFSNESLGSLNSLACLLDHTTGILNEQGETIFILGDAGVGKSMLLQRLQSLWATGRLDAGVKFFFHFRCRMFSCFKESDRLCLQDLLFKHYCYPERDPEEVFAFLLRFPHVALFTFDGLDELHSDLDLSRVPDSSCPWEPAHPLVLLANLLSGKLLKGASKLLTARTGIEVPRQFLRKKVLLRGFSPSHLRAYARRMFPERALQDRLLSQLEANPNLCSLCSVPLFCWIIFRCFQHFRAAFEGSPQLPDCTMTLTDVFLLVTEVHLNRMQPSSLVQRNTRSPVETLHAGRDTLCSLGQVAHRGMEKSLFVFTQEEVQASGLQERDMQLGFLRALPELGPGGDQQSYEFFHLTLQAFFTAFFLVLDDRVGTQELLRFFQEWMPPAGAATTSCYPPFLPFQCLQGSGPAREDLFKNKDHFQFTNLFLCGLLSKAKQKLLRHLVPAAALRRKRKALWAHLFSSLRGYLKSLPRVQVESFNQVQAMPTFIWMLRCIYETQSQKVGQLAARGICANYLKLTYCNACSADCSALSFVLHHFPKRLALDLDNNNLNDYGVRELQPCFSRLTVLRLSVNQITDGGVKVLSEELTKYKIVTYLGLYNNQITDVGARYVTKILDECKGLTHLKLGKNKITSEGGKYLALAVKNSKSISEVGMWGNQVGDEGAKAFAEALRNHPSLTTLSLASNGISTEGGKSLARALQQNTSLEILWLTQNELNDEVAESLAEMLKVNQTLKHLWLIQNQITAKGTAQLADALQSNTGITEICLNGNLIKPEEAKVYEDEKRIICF
# [37] = test system: HEK293; experiment: NOD1 signaling inhibitors, primary screen, cell-based, luminescence, uHTS (AID 1578); format: functional; settings: Homo sapiens
# [38] = test system: HEK293; experiment: cells; format: functional, cell-based; settings: Homo sapiens
# [39] = reduction of Shn3 3'UTR firefly luciferase signal, dose response, Schnurri-3 inhibitor project, cell-based, Clone20 osteoblasts, cherry-pick, set 2 (AID 720490); format: functional;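 further: actives lower the luminescence signal as inhibitors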
# [40] = test system: HEK293; experiment: NOD2 signaling inhibitors in MDP-stimulated cells, cell-based, uHTS, luminescence (AID 2001); format: functional; settings: Homo sapiens
# [41] = test system: HEK293; experiment: cells; format: functional, cell-based; settings: Homo sapiens; remark: listed apart in the source
# [42] = biological target: Tumor necrosis factor (Homo sapiens, UniProt P01375); experiment: TNFa-triggered NF-kB activation inhibitors, SAR follow-up, cell-based, revised (AID 2337); format: functional
# [43] = control 3'UTR Renilla luciferase suppression, dose response, counter-screen for Shn3 inhibitor project, cell-based, Clone20-Shn3RL, cherry-picked (AID 624133); format: functional
# [44] = biological target: Mitogen-activated protein kinase 10 (Homo sapiens, UniProt P53779); experiment: Dose response biochemical screening assay for inhibitors of c-Jun N-Terminal Kinase 3 (JNK3). [Related pubchem assays: 746 ]
smiles,measurement,setting,value
CCOc1ccc(S(=O)(=O)NCc2ccncc2)cc1Cl,AC50,[1],> 70 µM (inactive)
same,AC50,[2],92.5 nM (active) and 125 nM (active)
CC(=O)Nc1sc2c(c1-c1nc3ccccc3s1)CCN(C)C2,IC50,[3],25.7 µM (inactive)
Cc1nc2ccc(CN(C)c3ccc(C(=O)N[C@@H](CCC(=O)O)C(=O)O)s3)cc2c(=O)[nH]1,IC50,[4],0.0023 µM (active)
same,IC50,[5],> 10 µM (inactive)
same,IC50,[6],0.00288 µM (active)
same,IC50,[7],> 20 µM (inactive)
same,IC50,[8],> 20 µM (inactive)
same,IC50,[9],0.00424 µM (active)
same,IC50,[10],> 20 µM (inactive)
same,IC50,[11],0.001 µM (active)
same,IC50,[12],> 10 µM (inactive)
same,IC50,[13],> 20 µM (inactive)
N#Cc1ccsc1NC(=O)CSc1nncs1,EC50,[14],> 67.5 µM (inactive)
same,EC50,[15],> 67.5 µM (inactive)
COC(=O)c1ccc(-n2c(C)cc(C(=O)CSc3ccc(NC(C)=O)cc3)c2C)cc1,EC50,[16],0.73 µM
same,EC50,[17],0.39 µM (active)
same,EC50,[18],0.35 µM (inactive)
same,EC50,[19],0.37 µM (inactive)
same,EC50,[20],4.1 µM (inactive)
same,EC50,[21],1.78 µM (active)
same,EC50,[22],28.4 µM (active)
same,EC50,[23],0.18 µM (inactive)
same,EC50,[24],16.2 µM (active)
O=C(/C=C/c1ccc(Br)cc1)N1CCN(Cc2cc(F)cc(F)c2)CC1,IC50,[25],0.00221 µM (active)
C[C@@H]1CCCCO[C@H](CN(C)Cc2ccccc2)[C@H](C)CN([C@H](C)CO)C(=O)c2cc(NC(=O)CCC(F)(F)F)ccc2O1,AC50,[26],> 30 µM (inactive)
Cc1cccc(OCCn2c(=S)[nH]c3ccc(C(F)(F)F)cc32)c1,AC50,[27],15.6 µM (active)
same,AC50,[28],35.9 µM (active)
CN1CCc2nc3ccc(Cl)cc3c(-c3ccccc3Cl)c2C1,IC50,[29],> 100 µM (active)
same,CC50,[30],> 40 µM (active)
c1ccc(-c2nnc(SCc3cccnc3)o2)cc1,IC90,[31],8 µM (active)
same,IC90,[32],8 µM (active)
CC1Cc2cc(S(=O)(=O)N3CCN(c4ccc(Cl)cc4)CC3)ccc2N1C(=O)C1CC1 (centres undefined),AC50,[33],4.26 µM (active)
same,IC50,[34],> 20 µM (inactive)
same,AC50,[35],64.6 µM (active)
same,IC50,[36],5.6 µM (active)
same,EC50,[37],> 20 µM (inactive)
same,IC50,[38],2.22 µM (active)
same,AC50,[39],5 µM (active)
same,IC50,[40],4.43 µM (active)
same,IC50,[41],> 20 µM (inactive)
same,IC50,[42],9.52 µM (active)
same,AC50,[43],25.4 µM (active)
COc1ccc(C(=O)NCc2nc3ccccc3[nH]2)cc1OC,IC50,[44],23.2 µM (not active)
